Results as given in a melting point compilation (Tetko et al.).

SMILES | melting point [°C]
NNC(=O)c1c[nH]c2ccccc12 | 229 to 231
O=c1[nH]cnc2c1CCNC2 | 251 to 253
CC(=O)c1ccccc1NC(=O)CCCCl | 55 to 57
O=C(O)CCCOc1ccc(F)cc1F | 74 to 76
Cc1cnc(C(=O)O)c(C)c1 | 150 to 152
O=C(O)c1cccc(CSc2cc(Cl)cc(Cl)c2)c1 | 147 to 149
NC(=O)c1c[nH]c2ccccc12 | 201 to 203
CN(C)C(=O)c1cccc(N)c1 | 84 to 86
Cc1ccccc1Nc1nc(Cl)c(C=O)s1 | 153 to 155
Cc1nc(N)sc1Cc1ccccc1Cl | 126 to 128
Cc1nc(N)cc(Cl)n1 | 191 to 193
O=C(O)c1cc(Br)c(Cl)[nH]1 | 179 to 181
CCOc1ccccc1S(N)(=O)=O | 154 to 156
O=c1[nH]c(S)nc2c1cnn2-c1cccc(Cl)c1 | 255 to 257
Cc1cc(F)c(N)c(I)c1 | 32 to 34
Cc1cc(-n2c(C)cc(C(=O)O)c2C)no1 | 175 to 180
Cc1ccc(N2C(=O)Cc3ccccc3C2=O)cc1 | 173 to 175
NS(=O)(=O)c1cc([N+](=O)[O-])ccc1F | 139 to 141
COc1cc(C#N)ccn1 | 94 to 96
CN1CCN(c2cccc(C#N)n2)CC1 | 59 to 61
CC(C(=O)O)n1cccn1 (stereo not drawn) | 96 to 98
O=C(O)Cc1ccc(OCc2ccccn2)cc1 | 153 to 155
COc1ccc(-c2csc(N)n2)cc1F | 185 to 187
COCCN(C)S(N)(=O)=O | 34 to 36
O=c1[nH]cnc2nc(N3CCOCC3)sc12 | 397 to 399
CC(C)C1(C)CC(=O)NC1=O (stereo not drawn) | 78 to 80

SMILES | melting point [°C]
Cn1ccnc1C(N)c1ccc(Cl)cc1 (stereo not drawn) | 45 to 49
CS(=O)(=O)NCCc1ccc(C(=O)O)cc1 | 171 to 173
O=C1NCC(Br)C(=O)N1 (stereo not drawn) | 200 to 202
NNc1ccc(S(=O)(=O)NCc2ccco2)cn1 | 144 to 146
CCc1cc(C(=O)O)nn1C | 119 to 121
O=C(O)c1cc(Br)c(S(=O)(=O)Cl)c(Br)c1 | 199 to 201
O=C(O)C1CCN(C(=O)c2ccc3[nH]ncc3c2)CC1 | 246 to 248
O=C(O)/C=C/c1ccc(S(=O)(=O)NC2CC2)cc1 | 263 to 265
COC(=O)c1ccc(F)c(Cl)c1F | 47 to 49
Cn1nc(-c2ccncc2)cc1O | 209 to 211
Cc1nc2cc(N)ccc2o1 | 72 to 74
O=C(O)c1cccnc1Nc1cccc(F)c1 | 202 to 204
O=c1[nH]c(CCl)nc2ccc(Cl)cc12 | 249 to 251
COC(=O)c1c(-c2cnn(C)c2)csc1N | 128 to 130
O=Cc1c(Cl)cccc1N1CCOCC1 | 74 to 76
Nc1ncc(C(=O)O)cc1Br | 299 to 301
CCOC(=O)Cc1ccc(F)cc1 | 29 to 31
CCc1csc(-n2cc(C(=O)O)cn2)n1 | 159 to 161
Nc1cc(-c2cccc(Cl)c2)nn1-c1ccccc1 | 118 to 120
O=c1ccc(-c2ccc3c(c2)OCCCO3)n[nH]1 | 199 to 201
O=C(O)c1cnc2c(OC(F)(F)F)cccc2c1O | 259 to 261
NC(=O)C1CN(C(=O)CCl)c2ccccc2O1 (stereo not drawn) | 133 to 135
O=C(O)c1ccc(OCc2ccncc2)cc1 | 278 to 280
COc1ccc(C(=O)Nc2ccc(C(=O)O)cc2)cc1OC | 259 to 261
O=C(CBr)c1ccc2c(c1)Cc1ccccc1-2 | 141 to 143
COC(=O)c1cc(N)ccc1F | 84 to 86

SMILES | melting point [°C]
Cc1cc(C(=O)O)ccc1N1CCCS1(=O)=O | 174 to 176
COc1ccc(S(N)(=O)=O)cc1NC(=O)CCl | 169 to 171
COc1ccc(C(=O)NCC(=O)O)cc1OC | 198 to 200
O=C(O)CSc1nnc(-c2ccccc2F)n1-c1ccccc1 | 210 to 212
COc1ccc(-c2ccc(C#N)c(=O)[nH]2)cc1OC | 272 to 274
CCC(C)NC(=O)c1cccc(CN)c1 (stereo not drawn) | 95 to 97
CC1(CCc2ccccc2)NC(=O)NC1=O (stereo not drawn) | 179 to 181
c1cc(OCC2CO2)c2cc[nH]c2c1 (stereo not drawn) | 52 to 54
CC(C)(C)c1n[nH]cc1C=O | 131 to 133
N#CCS(=O)(=O)c1cc(Cl)ccc1Cl | 114 to 116
CS(=O)(=O)N1CCCCC1C(=O)O (stereo not drawn) | 74 to 76
CC(=O)c1ccc(S(=O)(=O)N2CCCCC2)cc1 | 139 to 142
O=C(O)c1cc(S(=O)(=O)Cl)c(Cl)cc1F | 144 to 146
Cc1cccc(NC2CCNCC2)n1 | 85 to 87
Nc1ccc(-c2nncn2-c2ccccc2)cn1 | 219 to 221
Cc1ccc2cccc(C(=O)O)c2n1 | 152 to 154
Cc1nnc(S)n1C1CCCC(C)C1 (stereo not drawn) | 129 to 131
O=Cc1cc([N+](=O)[O-])ccc1OC(F)F | 46 to 48
Cc1csc(=O)n1CCBr | 47 to 51
CC(=O)c1csc(C(=O)O)c1 | 149 to 151
O=C(O)c1ccc2c(c1)C(=O)N(C1CC1)C2=O | 220 to 222
Clc1cc2nc[nH]c2nc1Cl | 119 to 121
NNc1cc(Cl)ncn1 | 151 to 153
Cc1cc(C(=O)O)c(C)n1-c1ccc2c(c1)OCCO2 | 204 to 206
COC(=O)c1cc(C)ccc1N | 58 to 60
COc1cc(C=O)ccc1OCc1ccncc1 | 106 to 108

SMILES | melting point [°C]
CC(C)(N)CNC(=O)OC(C)(C)C | 68 to 70
Nc1cccc(C(=O)Nc2ccncc2)c1 | 224 to 226
Nc1nc2cc(Br)ccc2n1Cc1ccccc1 | 213 to 215
COCCN1C(=O)C(=O)c2ccc(Br)cc21 | 139 to 141
O=C(O)CC1CCc2ccccc21 (stereo not drawn) | 58 to 60
NCc1nnc2ccccn12 | 131 to 133
CNC(=O)c1cccc(NC(=O)C(C)Cl)c1 (stereo not drawn) | 149 to 151
CC(C)(C)OC(=O)Nc1ccc(C=O)cn1 | 169 to 171
COc1ccc(-c2nc(N)sc2C)cc1 | 120 to 122
CCOc1c(N)cc(Cl)cc1Br | 45 to 47
O=C(O)c1c[nH]nc1-c1ccc(F)c(Cl)c1 | 282 to 284
CC(=O)N(CCc1ccccc1)CC(=O)O | 149 to 151
O=S1(=O)Nc2ncnn2-c2ccccc21 | 284 to 286
Clc1ccc(OC2CCCNC2)nc1 (stereo not drawn) | 64 to 66
COc1cccc(NC(=O)COc2ccc(C(=O)O)cc2)c1 | 131 to 134
O=C(O)CCc1nc(Cc2ccccc2)no1 | 66 to 68
O=C(O)c1cnn(-c2ncccc2Cl)c1C(F)(F)F | 149 to 151
O=C1CC(C2CC2)CN1 (stereo not drawn) | 99 to 101
O=[N+]([O-])c1ccc2c(c1)S(=O)(=O)C=C2 | 179 to 181
O=[N+]([O-])c1cnc2c(c1)CCC2 | 85 to 87
Nc1nc2ncccc2[nH]1 | 268 to 270
CN(C)C(=O)CN1C(=O)C(=O)c2cc(Br)ccc21 | 194 to 196
Cc1cc(NC(=O)OC(C)(C)C)ccc1N | 103 to 105
O=c1[nH]c(-c2ncccn2)no1 | 221 to 223
O=C1CCC(O)(c2cccc(F)c2)CC1 | 111 to 113
